Values of other authors, collected in patent US20230381356A1 (priority 2021, published 2023).

What was measured:
Pixuna virus = conditions: GITC alone at or near saturation (~3.5M)
Ebola Virus = conditions: saturated GITC solution ~3.5M alone
SARS-CoV-2 = conditions: GITC alone, even in high concentrations
[1] = test system: Bovine Viral Diarrheal Virus
[2] = test system: Xenotropic murine leukemia virus
Virus = conditions: in <1 minute, final concentration of 1% (v/v)

Row | Compound | inactivation of Pixuna virus (Pixuna virus) | inactivation of Ebola Virus (Ebola Virus) | inactivation of SARS-CoV-2 (SARS-CoV-2) | inactivation of Pseudorabies Virus (Pseudorabies Virus) | inactivation of Bovine Viral Diarrheal Virus [1] | inactivation of HIV (HIV) | inactivation of Xenotropic murine leukemia virus [2] | log reduction (Virus) [log]
1 | N#CS.N=C(N)N [GITC, Guanidine isothiocyanate] | did not effectively inactivate | does not inactivate | 50-75% |  |  |  |  | 
2 | Triton X-100 |  |  |  | inactivate | inactivate | inactivate | inactivate | 4
